How the values were obtained:
[1] = target: T1, hASIC1a (Homo sapiens, UniProt P78348); test: Calcium-imaging (FLIPR, Fluo-4) of acid (MES)-induced calcium response in ASIC1a expressing HEK293 cells; type: cell-based; set-up: expressed in transfected cells; host or cells: HEK293; details: for inhibitory effect on acid-induced hASIC1a activity (dose-response curve): HEK293 transfected with hASIC1a, intracellular calcium, increasing concentrations; for IC50: calcium mobilization assay, MES-induced calcium response, HEK293, n=3-7
T1 sequence (P78348 1-528): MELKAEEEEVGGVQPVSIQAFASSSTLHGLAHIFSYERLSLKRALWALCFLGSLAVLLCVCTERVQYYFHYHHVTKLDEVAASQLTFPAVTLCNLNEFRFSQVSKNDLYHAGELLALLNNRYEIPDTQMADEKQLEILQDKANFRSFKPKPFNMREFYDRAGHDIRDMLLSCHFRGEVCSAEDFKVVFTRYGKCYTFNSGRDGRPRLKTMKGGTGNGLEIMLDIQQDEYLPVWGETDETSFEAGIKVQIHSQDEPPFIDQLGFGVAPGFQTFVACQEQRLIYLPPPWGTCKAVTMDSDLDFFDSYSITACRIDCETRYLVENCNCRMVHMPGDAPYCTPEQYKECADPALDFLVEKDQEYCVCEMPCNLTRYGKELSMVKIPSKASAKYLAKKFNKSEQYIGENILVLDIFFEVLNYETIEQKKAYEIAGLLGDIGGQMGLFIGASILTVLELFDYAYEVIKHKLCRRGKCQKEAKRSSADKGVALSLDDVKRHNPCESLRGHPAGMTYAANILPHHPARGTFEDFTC
Description: ASIC1a expressing HEK293 cells are grown in culture medium (DMEM with 10% FBS), in polystyrene culture flasks ([…]) at 37° C. in a humidified atmosphere of 5% CO2. Confluency of cells should be 80-90% on day of plating. Cells are rinsed with 10 ml of PBS and re-suspended by addition of culture medium and trituration with a 25 ml pipette.
The cells are seeded at a density of approximately 1×10^6 cells/ml (100 μl/well) in black-walled, clear bottom, 96-well plates pre-treated with 10 mg/l poly-D-lysin (75 μl/well for ≧30 min). Plated cells were allowed to proliferate for 24 h before loading with dye.
Fluo-4/AM (1 mg, Molecular Probes) is dissolved in 912 μl DMSO. The Fluo-4/AM stock solution (1 mM) is diluted with culture medium to a final concentration of 2 μM (loading solution).
The culture medium is aspirated from the wells, and 50 μl of the Fluo-4/AM loading solution is added to each well. The cells are incubated at 37° C. for 30 min.
After the loading period, the loading solution is aspirated and the cells are washed twice with 100 μl modified Assay Buffer (145 mM NaCl, 5 mM KCl, 5 mM CaCl2, 1 mM MgCl2, 10 mM HEPES, pH 7.4) to remove extracellular dye. Following the second wash, 100 μl modified Assay Buffer is added to each well and the fluorescence is measured in FLIPR™ or FlexStation™ (Molecular Devices, USA), or any other suitable equipment known to the skilled in the art.
Temperature: Room temperature (20-22° C.)
First addition: 50 μl test solution at a rate of 30 μl/sec and a starting height of 100 μl.
Second addition: 50 μl MES solution (20 mM, 5 mM final concentration) at a rate of 35 μl/sec and a starting height of 150 μl.
Reading intervals: pre-incubation—10 sec×7 and 3 sec×3 antagonist phase—3 sec×17 and 10 sec×12
Addition plates (compound test plate and MES plate) are placed on the right and left positions in the FLIPR tray, respectively. Cell plates are placed in the middle position and the ASIC1a program is effectuated. FLIPR will then take the appropriate measurements in accordance with the interval settings above. Fluorescence obtained after stimulation is corrected for the mean basal fluorescence (in modified Assay Buffer).
The MES-induced peak calcium response, in the presence of test substance, is expressed relatively to the MES response alone. Test substances that block the MES-induced calcium response are re-tested in triplicates. Confirmed hits are picked for further characterization by performing full dose-response curves to determine potency of each hit compound as represented by the IC50 values (i.e., the concentration of the test substance which inhibits 50% of the MES-induced calcium response; see, for example, FIGS. 1A, 1B and 1C, and FIGS. 13A and 13B).

[2] = system: formalin-induced pain; test: Formalin test, model of acute tonic pain; type: in vivo, rat; details: Automated Nociception Analyser, n=6-8
Description: Male Sprague-Dawley rats are housed together in groups of three animals under standard conditions with unrestricted access to food and water. All experiments are conducted according to the ethical guidelines for investigations of experimental pain in conscious animals (Zimmerman, 1983)
Assessment of formalin-induced flinching behavior in normal, uninjured rats (body weight 150-180 g) was made with the use of an Automated Nociception Analyser (University of California, San Diego, USA). Briefly, this involved placing a small C-shaped metal band (10 mm wide×27 mm long) on the hindpaw of the rat to be tested. The rats (four rats were included in each testing session) were then placed in a cylindrical plexiglass observation chamber (diameter 30.5 cm and height 15 cm) for 20 min for adaptation purposes prior to being administered drug or vehicle according to the experimental paradigm being followed. After adaptation, individual rats were then gently restrained and formalin (5% in saline, 50 μl, s.c.) was injected into the plantar surface of the hindpaw using a 27G needle. Rats were then returned to their separate observation chambers, each of which were in turn situated upon an enclosed detection device consisting of two electromagnetic coils designed to produce an electromagnetic field in which movement of the metal band could be detected. The analogue signal was then digitised and a software algorithm (LabView) applied to enable discrimination of flinching behaviour from other paw movements. A sampling interval of 1 min was used and on the basis of the resulting response patterns 5 phases of nociceptive behaviour were identified and scored: first phase (P1; 0-5 min), interphase (Int; 6-15 min), second phase (P2; […]), phase 2A (P2A; 16-40 min) and phase 2B (P2B; 41-60 min).
Nociceptive behavior was also determined manually every 5 min by measuring the amount of time spent in each of four behavioral categories: 0, treatment of the injected hindpaw is indistinguishable from that of the contralateral paw; 1, the injected paw has little or no weight placed on it; 2, the injected paw is elevated and is not in contact with any surface; 3, the injected paw is licked, bitten, or shaken. A weighted nociceptive score, ranging from 0 to 3 was calculated by multiplying the time spent in each category by the category weight, summing these products, and dividing by the total time for each 5 min block of time. (Coderre et al., Pain 1993; 54: 43). On the basis of the resulting response patterns, […] of nociceptive behavior were identified and scored: first phase (P1; 0-5 min), interphase (Int; 6-15 min), second phase (P2; […]), phase 2A (P2A; 16-40 min) and phase 2B (P2B; 41-60 min). […]

[3] = target: T1, hASIC1a; test: Whole-cell voltage clamp of pH-evoked response of human ASIC1a stably transfected in CHO cells; type: cell-based; set-up: expressed in transfected cells; details: for effect on proton-gated currents from CHO cells expressing hASIC1a: 1 μM, voltage clamp
Description: FIG. 3 illustrates the inhibitory effect of Compound A on acid-evoked activation of human ASIC1a stably transfected in CHO cells. […] In this example, the size of the pH-evoked response was determined by measuring the area under the curve of the response (total charge transfer) and normalized to the control response. FIG. 3B depicts an example of an hASIC1a current (whole cell voltage clamp, −60 mV) evoked by a pH 6.8-buffered solution (from pH 7.4) in the presence or absence of Compound A (3 μM).
These endogenous proton-activated inward currents were recorded in the presence and absence of Compound J (1 μM) or Compound K (1 μM) using the whole cell configuration of the patch clamp method (voltage clamp mode).
All experiments are performed at room temperature (20-25° C.) in voltage clamp using conventional whole cell patch clamp methods (Neher, E., et al. (1978) Pfluegers Arch 375:219-228).
Coverslips with the cells are transferred to a 15 μl experimental chamber mounted on the stage of an inverted microscope (IMT-2, Olympus) supplied with Nomarski optics. Cells are continuously superfused with extracellular saline at a rate of 2.5 ml/min. After giga-seal formation, the whole cell configuration is attained by suction. The cells are held at a holding voltage of −60 mV and at the start of each experiment the current is continuously measured for 45 s to ensure a stable baseline. Solutions of low pH (<7) are delivered to the chamber through a custom-made gravity-driven flowpipe, the tip of which is placed approximately 50 μm from the cell. Application is triggered when the tubing connected to the flowpipe is compressed by a valve controlled by the Pulse-software. Initially, low pH (in general, pH 6.5) is applied for 5 s every 60 s. The sample interval during application is 5501s. After stable responses are obtained, the extracellular saline as well as the low-pH solution are switched to solutions containing the compound to be tested. The compound is present until responses of a repeatable amplitude are achieved. Current amplitudes are measured at the peak of the responses, and effect of the compounds is calculated as the amplitude at compound equilibrium divided by the amplitude of the current evoked by the pulse just before the compound was included.
The following salt solutions are used: extracellular solution (mM): NaCl (140), KCl (4), CaCl2 (2), MgCl2 (4), HEPES (10, pH 7.4); intracellular solution (mM): KCl (120), KOH (31), MgCl2 (1.785), EGTA (10), HEPES (10, pH 7.2). In general, compounds for testing are dissolved in 50% DMSO at 500 fold the highest concentration used.
Similar findings are shown in FIG. 3 with the human ASIC1a stably transfected in CHO cells. FIG. 3A compares the dose-response relationship between Compound A and amiloride [determined by measuring the area under the curve of the response (total charge transfer) and normalized to the control response]. […] FIGS. 14A and 14B show similar results for Compounds J and K.

SMILES	inhibitory effect on acid-induced hASIC1a activity (dose-response curve) [1]	IC50 [1]	further results
CCN1CCc2c(-c3cc(C)cc(C)c3)cc3c(c2C1)NC(=O)/C3=N/O [Compound E, 5-(3,5-dimethylphenyl)-6,7,8,9-tetrahydro-3-(hydroxyimino)-8-ethyl-1H-pyrrolo[3,2-h]isoquinoline-2(3H)-one]	dose-dependently inhibit		
CCN1CCc2c(-c3cc(Cl)ccc3OC)cc3c(c2C1)NC(=O)/C3=N/O [Compound G, 5-(5-chloro-2-methoxyphenyl)-6,7,8,9-tetrahydro-3-(hydroxyimino)-8-ethyl-1H-pyrrolo[3,2-h]isoquinoline-2(3H)-one]	dose-dependently inhibit		
CCN1CCc2c(-c3cc(C)ccc3C)cc3c(c2C1)NC(=O)/C3=N/O [Compound F, 5-(2,5-dimethylphenyl)-6,7,8,9-tetrahydro-3-(hydroxyimino)-8-ethyl-1H-pyrrolo[3,2-h]isoquinoline-2(3H)-one]	dose-dependently inhibit		
COc1ccc(Cl)cc1-c1cc2c(c3c1CCN(C)C3)NC(=O)/C2=N/O [Compound C, 5-(5-chloro-2-methoxyphenyl)-6,7,8,9-tetrahydro-3-(hydroxyimino)-8-methyl-1H-pyrrolo[3,2-h]isoquinoline-2(3H)-one]		200 to 300 nM	
Cc1cc(C)cc(-c2cc3c(c4c2CCN(C)C4)NC(=O)/C3=N/O)c1 [Compound D, 5-(3,5-dimethylphenyl)-6,7,8,9-tetrahydro-3-(hydroxyimino)-8-methyl-1H-pyrrolo[3,2-h]isoquinoline-2(3H)-one]		250 to 350 nM	
N=C(N)NC(=O)c1nc(Cl)c(N)nc1N [amiloride, reference compound]			effect on size of human ASIC1a pH-evoked response (area under the curve, total charge transfer, normalized to control) ([3]; CHO cells, -60 mV, pH 6.8 from pH 7.4): reduce the human ASIC1a pH-evoked response in a dose-dependent manner

Continued, in another order:

inhibitory effect on acid-induced hASIC1a activity (dose-response curve) [1]	IC50 [1]	SMILES	further results
	20 to 30 nM	CCN1CCc2c(-c3cc(F)ccc3OC)cc3c(c2C1)NC(=O)/C3=N/O [Compound B, 5-(5-fluoro-2-methoxyphenyl)-6,7,8,9-tetrahydro-3-(hydroxyimino)-8-ethyl-1H-pyrrolo[3,2-h]isoquinoline-2(3H)-one]	pain intensity as evaluated by the flinching behavior [2]: dose-dependent reduction of the pain intensity
	300 to 1700 nM	CCOc1ccccc1-c1cc2c(c3c1CCN(CC)C3)NC(=O)/C2=N/O [Compound K, 5-(2-ethoxy-phenyl)-8-ethyl-6,7,8,9-tetrahydro-1H-pyrrolo[3,2-h]isoquinoline-2,3-dione 3-oxime]	effect on proton-gated currents from CHO cells expressing hASIC1a [3]: inhibitory effects
	100 to 700 nM	CCN1CCc2c(-c3ccccc3OC)cc3c(c2C1)NC(=O)/C3=N/O [Compound J, 8-ethyl-5-(2-methoxy-phenyl)-6,7,8,9-tetrahydro-1H-pyrrolo[3,2-h]isoquinoline-2,3-dione 3-oxime]	effect on proton-gated currents from CHO cells expressing hASIC1a [3]: inhibitory effects

Source: patent publication US7718641B2, “Pyrrolo [3,4-H] isoquinoline compounds and methods for modulating gated ion channels” (Aros Pharma ApS, priority 2005, dated 2010)
